In the kinase profiling compilation of Christmann-Franck et al. (2016):

Legend:
Assay in all cases: KINOMEscan competition binding
Conditions in all cases: compound 10.0 µM
PRKG2 (human) = PRKG2 (human) (UniProt Q13237)
CDK14 (human) = CDK14 (human) (UniProt O94921)
STK11 (human) = STK11 (human) (UniProt Q15831)
CDK11B (human) = CDK11B (human) (UniProt P21127)
CDK16 (human) = CDK16 (human) (UniProt Q00536)
STK25 (human) = STK25 (human) (UniProt O00506)
LATS2 (human) = LATS2 (human) (UniProt Q9NRM7)
DCLK2 (human) = DCLK2 (human) (UniProt Q8N568)
LYN (human) = LYN (human) (UniProt P07948)
CSNK1G1 (human) = CSNK1G1 (human) (UniProt Q9HCP0)
PDPK1 (human) = PDPK1 (human) (UniProt O15530)
MKNK1 (human) = MKNK1 (human) (UniProt Q9BUB5)
CIT (human) = CIT (human) (UniProt O14578)
STK38L (human) = STK38L (human) (UniProt Q9Y2H1)
KDR (human) = KDR (human) (UniProt P35968)
PAK3 (human) = PAK3 (human) (UniProt O75914)
CDK18 (human) = CDK18 (human) (UniProt Q07002)
PIK3CA (human) = PIK3CA (human) (UniProt P42336)
TLK2 (human) = TLK2 (human) (UniProt Q86UE8)
CDK8 (human) = CDK8 (human) (UniProt P49336)
PAK2 (human) = PAK2 (human) (UniProt Q13177)
RPS6KA2 KD1 (human) = RPS6KA2 KD1 (human) (UniProt Q15349)
GSK3A (human) = GSK3A (human) (UniProt P49840)
CSNK1D (human) = CSNK1D (human) (UniProt P48730)
SRPK1 (human) = SRPK1 (human) (UniProt Q96SB4)
CDC42BPB (human) = CDC42BPB (human) (UniProt Q9Y5S2)
ULK2 (human) = ULK2 (human) (UniProt Q8IYT8)
MST1R (human) = MST1R (human) (UniProt Q04912)
CDKL2 (human) = CDKL2 (human) (UniProt Q92772)
ROCK2 (human) = ROCK2 (human) (UniProt O75116)
MINK1 (human) = MINK1 (human) (UniProt Q8N4C8)
MAPK13 (human) = MAPK13 (human) (UniProt O15264)
IKBKB (human) = IKBKB (human) (UniProt O14920)
PIK3C2B (human) = PIK3C2B (human) (UniProt O00750)
EGFR (human) = EGFR (human) (UniProt P00533)

Chain of CDC42BPB (human) (Q9Y5S2 whole entry, looked up): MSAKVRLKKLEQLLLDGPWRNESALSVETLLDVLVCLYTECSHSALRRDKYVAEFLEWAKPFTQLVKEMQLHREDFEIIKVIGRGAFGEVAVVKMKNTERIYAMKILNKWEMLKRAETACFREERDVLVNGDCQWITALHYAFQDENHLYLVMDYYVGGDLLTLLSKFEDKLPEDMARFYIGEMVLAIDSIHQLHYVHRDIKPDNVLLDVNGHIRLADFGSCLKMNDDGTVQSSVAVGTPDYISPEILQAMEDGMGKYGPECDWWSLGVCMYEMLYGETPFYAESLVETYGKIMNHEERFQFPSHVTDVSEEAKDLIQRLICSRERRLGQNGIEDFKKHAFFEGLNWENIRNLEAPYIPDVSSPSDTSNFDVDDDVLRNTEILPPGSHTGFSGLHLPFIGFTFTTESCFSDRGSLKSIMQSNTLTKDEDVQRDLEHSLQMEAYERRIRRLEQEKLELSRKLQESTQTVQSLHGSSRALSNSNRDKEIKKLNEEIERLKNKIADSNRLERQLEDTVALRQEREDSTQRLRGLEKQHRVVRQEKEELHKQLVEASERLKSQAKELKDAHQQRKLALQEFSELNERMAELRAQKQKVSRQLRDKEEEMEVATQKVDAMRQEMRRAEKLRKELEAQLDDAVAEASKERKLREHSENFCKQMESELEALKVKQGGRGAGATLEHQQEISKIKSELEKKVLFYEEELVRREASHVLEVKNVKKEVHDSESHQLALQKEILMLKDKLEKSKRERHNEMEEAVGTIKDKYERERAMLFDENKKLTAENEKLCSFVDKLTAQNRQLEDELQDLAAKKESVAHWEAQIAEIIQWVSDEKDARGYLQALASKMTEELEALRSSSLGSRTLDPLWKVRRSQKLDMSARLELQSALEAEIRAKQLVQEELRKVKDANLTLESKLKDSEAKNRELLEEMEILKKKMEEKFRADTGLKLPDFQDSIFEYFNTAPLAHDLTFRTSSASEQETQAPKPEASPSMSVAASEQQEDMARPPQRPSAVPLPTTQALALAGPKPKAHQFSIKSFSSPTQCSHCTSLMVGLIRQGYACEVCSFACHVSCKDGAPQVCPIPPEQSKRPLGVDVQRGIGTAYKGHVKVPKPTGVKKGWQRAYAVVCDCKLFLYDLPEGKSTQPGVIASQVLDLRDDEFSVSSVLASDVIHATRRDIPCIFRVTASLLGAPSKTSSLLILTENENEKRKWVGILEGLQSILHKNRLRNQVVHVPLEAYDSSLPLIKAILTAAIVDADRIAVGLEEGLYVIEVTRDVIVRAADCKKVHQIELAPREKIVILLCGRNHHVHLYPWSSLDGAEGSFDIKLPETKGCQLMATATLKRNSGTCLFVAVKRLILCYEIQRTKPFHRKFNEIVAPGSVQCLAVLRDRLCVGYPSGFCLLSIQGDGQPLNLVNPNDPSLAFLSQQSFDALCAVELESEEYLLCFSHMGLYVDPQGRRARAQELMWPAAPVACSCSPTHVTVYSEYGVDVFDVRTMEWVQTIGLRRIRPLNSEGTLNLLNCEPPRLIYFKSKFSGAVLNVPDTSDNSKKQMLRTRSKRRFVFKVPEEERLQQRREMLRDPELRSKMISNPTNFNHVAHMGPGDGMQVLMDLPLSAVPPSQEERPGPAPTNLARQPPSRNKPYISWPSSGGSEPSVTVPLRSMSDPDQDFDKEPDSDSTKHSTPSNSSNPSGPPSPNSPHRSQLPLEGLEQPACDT
Chain of CDK18 (human) (Q07002 whole entry, looked up): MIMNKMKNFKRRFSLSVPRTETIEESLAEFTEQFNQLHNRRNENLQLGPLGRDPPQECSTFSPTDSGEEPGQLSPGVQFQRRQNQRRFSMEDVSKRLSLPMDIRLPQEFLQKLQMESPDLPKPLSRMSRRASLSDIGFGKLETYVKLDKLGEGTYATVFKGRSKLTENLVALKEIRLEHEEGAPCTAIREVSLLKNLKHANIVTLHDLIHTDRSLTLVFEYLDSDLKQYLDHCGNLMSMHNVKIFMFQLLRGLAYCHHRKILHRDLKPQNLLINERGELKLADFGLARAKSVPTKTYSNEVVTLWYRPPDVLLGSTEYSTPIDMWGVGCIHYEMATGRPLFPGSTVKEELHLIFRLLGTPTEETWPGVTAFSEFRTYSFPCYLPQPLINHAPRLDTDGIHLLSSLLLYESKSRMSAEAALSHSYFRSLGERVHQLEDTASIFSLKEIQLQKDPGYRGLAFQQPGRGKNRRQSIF
Chain of TLK2 (human) (Q86UE8 whole entry, looked up): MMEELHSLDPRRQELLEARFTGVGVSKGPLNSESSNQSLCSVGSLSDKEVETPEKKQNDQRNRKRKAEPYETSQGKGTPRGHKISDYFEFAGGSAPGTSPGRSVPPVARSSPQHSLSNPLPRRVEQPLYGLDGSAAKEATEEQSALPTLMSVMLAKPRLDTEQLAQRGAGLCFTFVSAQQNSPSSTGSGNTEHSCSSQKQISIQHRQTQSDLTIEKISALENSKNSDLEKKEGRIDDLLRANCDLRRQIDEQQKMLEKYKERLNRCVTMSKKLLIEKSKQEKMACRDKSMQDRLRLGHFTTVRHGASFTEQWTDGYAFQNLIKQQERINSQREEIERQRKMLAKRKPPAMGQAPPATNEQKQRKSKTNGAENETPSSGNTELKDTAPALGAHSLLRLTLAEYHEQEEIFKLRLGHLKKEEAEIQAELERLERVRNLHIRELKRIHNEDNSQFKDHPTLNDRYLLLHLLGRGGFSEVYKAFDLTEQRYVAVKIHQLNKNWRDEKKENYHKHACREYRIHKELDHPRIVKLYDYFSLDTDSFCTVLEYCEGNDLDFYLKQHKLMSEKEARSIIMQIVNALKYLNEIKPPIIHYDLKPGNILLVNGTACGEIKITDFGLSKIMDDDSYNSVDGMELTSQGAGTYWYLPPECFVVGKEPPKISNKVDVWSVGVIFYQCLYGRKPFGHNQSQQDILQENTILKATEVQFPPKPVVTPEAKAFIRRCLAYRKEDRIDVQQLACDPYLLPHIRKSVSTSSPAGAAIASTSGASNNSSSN
Chain of RPS6KA2 KD1 (human) (Q15349 whole entry, looked up): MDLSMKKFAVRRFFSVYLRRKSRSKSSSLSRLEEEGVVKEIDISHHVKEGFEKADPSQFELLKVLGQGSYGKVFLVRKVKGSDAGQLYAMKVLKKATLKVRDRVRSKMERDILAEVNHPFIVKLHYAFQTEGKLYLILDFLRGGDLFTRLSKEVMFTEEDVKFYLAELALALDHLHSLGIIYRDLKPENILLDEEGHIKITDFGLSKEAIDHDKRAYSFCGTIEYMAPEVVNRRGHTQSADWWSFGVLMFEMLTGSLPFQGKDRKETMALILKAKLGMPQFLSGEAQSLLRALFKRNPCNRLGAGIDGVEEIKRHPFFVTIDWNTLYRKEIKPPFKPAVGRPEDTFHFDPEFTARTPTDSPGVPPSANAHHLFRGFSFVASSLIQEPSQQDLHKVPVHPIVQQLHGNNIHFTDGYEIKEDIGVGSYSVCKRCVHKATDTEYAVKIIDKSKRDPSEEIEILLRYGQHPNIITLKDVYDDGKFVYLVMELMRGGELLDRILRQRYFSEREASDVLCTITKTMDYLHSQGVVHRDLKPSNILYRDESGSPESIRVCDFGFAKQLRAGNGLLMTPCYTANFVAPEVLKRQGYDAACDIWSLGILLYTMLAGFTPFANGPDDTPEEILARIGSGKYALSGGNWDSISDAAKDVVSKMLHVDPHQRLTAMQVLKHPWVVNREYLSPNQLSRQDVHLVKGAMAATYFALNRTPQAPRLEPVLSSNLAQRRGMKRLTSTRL
Chain of CDK16 (human) (Q00536 whole entry, looked up): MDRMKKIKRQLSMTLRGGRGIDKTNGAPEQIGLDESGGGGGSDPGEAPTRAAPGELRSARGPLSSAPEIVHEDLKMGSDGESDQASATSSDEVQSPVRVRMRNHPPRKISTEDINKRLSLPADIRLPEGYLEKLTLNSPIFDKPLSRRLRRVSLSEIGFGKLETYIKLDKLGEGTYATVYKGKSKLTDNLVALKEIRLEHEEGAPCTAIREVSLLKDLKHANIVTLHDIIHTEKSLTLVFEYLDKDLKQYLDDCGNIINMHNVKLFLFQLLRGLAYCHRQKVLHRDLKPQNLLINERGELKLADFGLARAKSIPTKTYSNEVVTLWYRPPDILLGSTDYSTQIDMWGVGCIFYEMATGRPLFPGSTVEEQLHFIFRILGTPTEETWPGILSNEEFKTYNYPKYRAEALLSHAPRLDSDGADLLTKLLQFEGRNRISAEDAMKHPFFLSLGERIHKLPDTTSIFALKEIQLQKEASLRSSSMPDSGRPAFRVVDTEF
Chain of STK38L (human) (Q9Y2H1 whole entry, looked up): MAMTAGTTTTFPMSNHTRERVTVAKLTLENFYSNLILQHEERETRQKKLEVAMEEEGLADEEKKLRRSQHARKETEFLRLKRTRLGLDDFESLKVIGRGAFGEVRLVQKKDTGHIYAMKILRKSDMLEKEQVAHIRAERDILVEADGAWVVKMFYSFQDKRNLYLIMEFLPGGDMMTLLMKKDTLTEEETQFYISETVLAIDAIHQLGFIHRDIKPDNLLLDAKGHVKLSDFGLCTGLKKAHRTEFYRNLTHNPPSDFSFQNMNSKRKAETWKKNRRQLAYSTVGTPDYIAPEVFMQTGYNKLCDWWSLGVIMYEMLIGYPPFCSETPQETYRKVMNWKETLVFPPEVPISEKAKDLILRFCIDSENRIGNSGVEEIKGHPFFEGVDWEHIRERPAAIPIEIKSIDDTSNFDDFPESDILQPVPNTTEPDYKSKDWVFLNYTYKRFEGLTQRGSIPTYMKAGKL
Chain of STK25 (human) (O00506 whole entry, looked up): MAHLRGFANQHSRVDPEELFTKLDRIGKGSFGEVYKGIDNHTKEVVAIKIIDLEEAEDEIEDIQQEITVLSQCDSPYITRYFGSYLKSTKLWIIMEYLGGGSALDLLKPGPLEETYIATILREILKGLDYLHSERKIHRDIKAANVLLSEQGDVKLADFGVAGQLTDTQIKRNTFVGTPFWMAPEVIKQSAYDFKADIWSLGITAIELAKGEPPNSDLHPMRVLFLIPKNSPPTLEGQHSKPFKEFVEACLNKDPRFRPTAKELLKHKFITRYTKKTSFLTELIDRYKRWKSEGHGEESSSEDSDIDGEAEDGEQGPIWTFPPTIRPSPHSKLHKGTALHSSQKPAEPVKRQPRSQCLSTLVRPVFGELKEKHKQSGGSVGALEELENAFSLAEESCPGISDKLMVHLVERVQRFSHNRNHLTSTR

| SMILES | kinase still bound, per cent of control (PRKG2 (human)) | kinase still bound, per cent of control (CDK14 (human)) | kinase still bound, per cent of control (STK11 (human)) | kinase still bound, per cent of control (CDK11B (human)) | kinase still bound, per cent of control (CDK16 (human)) | kinase still bound, per cent of control (STK25 (human)) | kinase still bound, per cent of control (LATS2 (human)) | kinase still bound, per cent of control (DCLK2 (human)) | kinase still bound, per cent of control (LYN (human)) | kinase still bound, per cent of control (CSNK1G1 (human)) | kinase still bound, per cent of control (PDPK1 (human)) | kinase still bound, per cent of control (MKNK1 (human)) | kinase still bound, per cent of control (CIT (human)) | kinase still bound, per cent of control (STK38L (human)) | kinase still bound, per cent of control (KDR (human)) | kinase still bound, per cent of control (PAK3 (human)) | kinase still bound, per cent of control (CDK18 (human)) | kinase still bound, per cent of control (PIK3CA (human)) | kinase still bound, per cent of control (TLK2 (human)) | kinase still bound, per cent of control (CDK8 (human)) | other results |
| --- | --- | --- | --- | --- | --- | --- | --- | --- | --- | --- | --- | --- | --- | --- | --- | --- | --- | --- | --- | --- | --- |
| CCN(CC)CCCCNc1ncc2cc(-c3cc(OC)cc(OC)c3)c(NC(=O)NC(C)(C)C)nc2n1 | 100% | 100% | 100% | 100% | 100% | 9.4% | 100% | 100% | 100% | 100% | 100% | 100% | 100% | 100% | 21% | 100% | 100% | 20% | 100% | 100% | kinase still bound, per cent of control (PAK2 (human)): 100%; kinase still bound, per cent of control (RPS6KA2 KD1 (human)): 100%; kinase still bound, per cent of control (GSK3A (human)): 100%; kinase still bound, per cent of control (CSNK1D (human)): 100%; kinase still bound, per cent of control (SRPK1 (human)): 100%; kinase still bound, per cent of control (CDC42BPB (human)): 100% |
| Cc1n[nH]c2ccc(-c3cncc(OC[C@@H](N)Cc4c[nH]c5ccccc45)c3)cc12 | 5.7% | 9.8% | 30% | 100% | 16% | 100% | 0% | 100% | 100% | 3.7% | 100% | 19% | 0.2% | 100% | 100% | 100% | 28% | 100% | 100% | 9.6% | kinase still bound, per cent of control (ULK2 (human)): 12%; kinase still bound, per cent of control (MST1R (human)): 100%; kinase still bound, per cent of control (CDKL2 (human)): 5.2%; kinase still bound, per cent of control (ROCK2 (human)): 0%; kinase still bound, per cent of control (MINK1 (human)): 6.2%; kinase still bound, per cent of control (PAK2 (human)): 4.6%; kinase still bound, per cent of control (RPS6KA2 KD1 (human)): 29%; kinase still bound, per cent of control (MAPK13 (human)): 4.4%; kinase still bound, per cent of control (GSK3A (human)): 1%; kinase still bound, per cent of control (SRPK1 (human)): 17%; kinase still bound, per cent of control (CDC42BPB (human)): 1%; kinase still bound, per cent of control (IKBKB (human)): 34%; kinase still bound, per cent of control (PIK3C2B (human)): 100% |
| CNC(=O)c1ccc(Nc2cc(Nc3ccccc3S(=O)(=O)C(C)C)c3cc[nH]c3n2)nc1 | 25% | 100% | 18% | 100% | 22% | 100% | 100% | 100% | 22% | 16% | 100% | 100% | 100% | 15% | 100% | 1% | 100% | 100% | 100% | 100% | kinase still bound, per cent of control (ULK2 (human)): 9.1%; kinase still bound, per cent of control (EGFR (human)): 100%; kinase still bound, per cent of control (MST1R (human)): 100%; kinase still bound, per cent of control (CDKL2 (human)): 100%; kinase still bound, per cent of control (ROCK2 (human)): 0.95%; kinase still bound, per cent of control (MINK1 (human)): 100%; kinase still bound, per cent of control (PAK2 (human)): 100%; kinase still bound, per cent of control (RPS6KA2 KD1 (human)): 1.8%; kinase still bound, per cent of control (MAPK13 (human)): 100%; kinase still bound, per cent of control (GSK3A (human)): 18%; kinase still bound, per cent of control (CSNK1D (human)): 100%; kinase still bound, per cent of control (SRPK1 (human)): 2%; kinase still bound, per cent of control (CDC42BPB (human)): 100%; kinase still bound, per cent of control (IKBKB (human)): 100%; kinase still bound, per cent of control (PIK3C2B (human)): 100% |
